“And” between values parts separate entries of the source, which are not always exact repeats. Equal entries are not always repeated. Some results are limits rather than exact numbers.

One assay deals with GSK3β (h) (Homo sapiens, UniProt P49841). Nature of the assay: GSK-3β human kinase assay (SPA). It is filed as biochemical. To be noted: read-out: GSK3B pIC50 (converted). The protocol: (§1) The in vitro inhibition of a panel of kinases was assessed using either the scintillation proximity assay (SPA) as described by Cook, N. D. et al., Advances in Experimental Medicine and Biology (1991), 36; p. 525-528; or the Fluorescence Resonance Energy Transfer (FRET) technology as described by Rodems, S. M. et al., Assay Drug Develop. Technol. (2002), 1; p. 9-19.
Chain of GSK3β (h) (P49841 whole entry): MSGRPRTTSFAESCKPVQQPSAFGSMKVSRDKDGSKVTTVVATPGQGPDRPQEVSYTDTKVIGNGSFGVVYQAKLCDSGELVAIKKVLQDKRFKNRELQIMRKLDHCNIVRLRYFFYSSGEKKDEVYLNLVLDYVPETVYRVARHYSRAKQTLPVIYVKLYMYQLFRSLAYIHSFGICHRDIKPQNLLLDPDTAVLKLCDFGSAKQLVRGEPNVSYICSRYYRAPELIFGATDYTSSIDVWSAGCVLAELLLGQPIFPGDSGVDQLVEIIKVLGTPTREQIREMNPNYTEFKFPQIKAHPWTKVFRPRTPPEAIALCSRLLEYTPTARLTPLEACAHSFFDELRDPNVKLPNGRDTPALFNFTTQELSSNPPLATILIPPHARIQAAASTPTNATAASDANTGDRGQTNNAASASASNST
(§2) In the SPA technology the activity of the kinase of interest is measured using an appropriate biotinylated substrate that is incubated with the aforementioned kinase protein in the presence of (^33P) radiolabeled ATP. (^33P) Phosporylation of the substrate is subsequently measured through binding of the phosphorylated substrate to streptavidine coated beads that are based on the scintillant poly(vinyl toluene) (PVT-Beads). The scintillation intensity is detected by imaging on Leadseeker.
(§3) All kinases are pre-diluted to a 10× working concentration prior to addition into the assay. The composition of the dilution buffer for each kinase is detailed below.
In a final reaction volume of 30 μl, GSK3β (h) (1 μg/ml) is incubated with 25 mM Tris pH 7.4, 10 mM MgCl2, 1 mM DTT, 1 μM peptide Biotin-KRREILSRRPSYR-OH, 1 μM ATP and 2 nM [γ-^33P-ATP] (6.0 μCi/ml). After incubation of 60 minutes at room temperature, the reaction is stopped by addition of […] of stop solution containing 8.7 mM EDTA, BSA 0.17%, 0.17% Triton X-100, 6.25 mg/ml SPA beads (GE-healthcare). The plate is centriguged and read for Scintillation imaging on Leadseeker.

In the next assay the target is AuroraB (h) (Homo sapiens, UniProt Q96GD4). The assay can be described thus: Aurora-B human kinase assay (SPA). Format: biochemical. To be noted: read-out: AuroraB pIC50 (converted). As to the method: as §1, §2, §3
Chain of AuroraB (h) (Q96GD4 whole entry): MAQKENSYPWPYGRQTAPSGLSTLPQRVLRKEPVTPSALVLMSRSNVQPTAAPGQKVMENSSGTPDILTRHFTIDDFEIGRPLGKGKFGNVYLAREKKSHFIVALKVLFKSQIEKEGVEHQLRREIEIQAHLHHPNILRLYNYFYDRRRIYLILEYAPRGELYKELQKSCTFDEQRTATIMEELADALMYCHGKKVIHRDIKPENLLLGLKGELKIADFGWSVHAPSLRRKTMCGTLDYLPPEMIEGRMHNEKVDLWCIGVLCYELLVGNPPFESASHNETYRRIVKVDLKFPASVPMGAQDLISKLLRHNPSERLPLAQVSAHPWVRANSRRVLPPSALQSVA
In a final reaction volume of 30 μl, AuroraB (h) (0.5 μg/ml) is incubated with 60 mM Hepes pH 7.5, 3 mM MgCl2, 3 mM MnCl2, 3 μM Na3VO4, 0.05 mg/ml PEG, 2 mM DTT, 3 μM Biotin-[…]-OH, 0.5 μM ATP and 2.2 nM [γ-^33P-ATP] (6.8 μCi/ml). After incubation of 60 minutes at room temperature, the reaction is stopped by addition of 40 μL of stop solution containing 8.7 mM EDTA, BSA 0.17%, 0.17% Triton X-100, 5 mg/ml SPA beads (GE-healthcare). The plate is centriguged and read for Scintillation imaging on Leadseeker.

The target in the next assay is PLK4 (h) (Homo sapiens, UniProt O00444). The assay can be described thus: PLK-4 human kinase assay (SPA). The conditions noted are these: read-out: PLK4 pIC50 (converted). It is filed as biochemical. The protocol: as §1, §2, §3
Chain of PLK4 (h) (O00444 whole entry): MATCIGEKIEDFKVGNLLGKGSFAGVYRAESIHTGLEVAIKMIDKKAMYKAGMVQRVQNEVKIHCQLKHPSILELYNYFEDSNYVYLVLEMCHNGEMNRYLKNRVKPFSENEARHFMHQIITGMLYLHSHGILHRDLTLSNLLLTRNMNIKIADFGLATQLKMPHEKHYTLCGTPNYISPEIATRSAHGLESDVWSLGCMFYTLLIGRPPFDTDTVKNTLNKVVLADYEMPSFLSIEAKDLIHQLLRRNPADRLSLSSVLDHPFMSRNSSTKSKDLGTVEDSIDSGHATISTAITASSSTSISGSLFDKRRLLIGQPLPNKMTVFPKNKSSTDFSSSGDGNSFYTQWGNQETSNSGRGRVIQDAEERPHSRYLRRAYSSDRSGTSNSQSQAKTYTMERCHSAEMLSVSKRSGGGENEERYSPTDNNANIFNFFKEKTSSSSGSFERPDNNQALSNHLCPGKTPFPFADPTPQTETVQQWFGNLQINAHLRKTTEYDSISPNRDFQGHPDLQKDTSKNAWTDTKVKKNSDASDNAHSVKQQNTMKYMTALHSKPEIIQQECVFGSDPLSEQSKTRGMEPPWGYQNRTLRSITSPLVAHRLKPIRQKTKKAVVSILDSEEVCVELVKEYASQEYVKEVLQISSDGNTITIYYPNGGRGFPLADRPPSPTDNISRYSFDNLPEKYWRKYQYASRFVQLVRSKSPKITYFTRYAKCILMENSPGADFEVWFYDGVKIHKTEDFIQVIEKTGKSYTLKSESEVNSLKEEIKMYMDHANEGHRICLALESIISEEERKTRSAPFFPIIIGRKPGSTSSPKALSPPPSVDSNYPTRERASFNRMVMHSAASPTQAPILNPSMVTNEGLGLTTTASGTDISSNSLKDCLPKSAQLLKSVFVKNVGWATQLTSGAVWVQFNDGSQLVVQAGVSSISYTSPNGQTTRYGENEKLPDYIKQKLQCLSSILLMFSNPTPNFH
In a final reaction volume of 30 μl PLK4 (h) (19 μg/ml) is incubated with 50 mM Hepes pH 8.0, 10 mM MgCl2, 50 mM NaCl, 1 mM NaF, 1 mM DTT, 10 μM of peptide Biotin-RPRGQRDSSYYWE-OH, 1 μM ATP and 2 nM [γ-^33P-ATP] (6.0 μCi/ml). After incubation of 60 minutes at room temperature, the reaction is stopped by addition of 40 μl, of stop solution containing 8.7 mM EDTA, BSA 0.17%, 0.17% Triton X-100, 1.7 mg/ml SPA beads (GE-healthcare). The plate is centriguged and read for Scintillation imaging on Leadseeker.

The target of another assay is CDK1/CyclinB (h) (Homo sapiens, UniProt P06493). Nature of the assay: CDK1/CyclinB human kinase assay (FRET). The conditions noted are these: read-out: CDK1 pIC50 (converted). Format: biochemical. The protocol:
as §1
In the FRET technology the activity of the kinase of interest is measured using an appropriate substrate that is labeled with two fluorophores (coumarin and fluorescein). Phosphorylation is determined using a developing reagent comprising a protease that recognizes and cleaves nonphosphorylated peptides. Cleavage will disturb the FRET between the fluorescein and coumarin on the peptide. Uncleaved, phosphorylated peptides maintain the FRET signal. A ratiometric readout of the donor emission over the acceptor emission quantitates the reaction process.
as §3
In a final reaction volume of 10 μl, CDK1/CyclinB (h) (0.2 μg/ml) is incubated with 50 mM Hepes pH 7.5, 10 mM MgCl2, 1 mM EGTA, 0.01% Brij-35, 2 μM Z'lyte Ser/Thr peptide 12 and 10 μM ATP (Invitrogen's FRET assay). After incubation of 60 minutes at room temperature, the reaction is stopped by addition of 5 μL development reagent containing protease mix. After 60 minutes room temperature the development reaction is stopped by adding 5 μl stop solution. The plate is then read in fluorescence plate reader with excitation: 390 nm and dual emission: 460 and 538 nm. Emission ratio is determined to the formula=Emission signal intensity at 460 nm/Emission signal intensity at 538 nm.

The test system of another assay is H1299. The assay can be described thus: Cellular proliferation assay (Alamar blue), H1299. Format: cell-based. The conditions noted are these: Homo sapiens, NCI-H1299, 72 h, H1299 cells, 72 hours with compound, 10% FCS, read-out: pIC50 H1299 (converted). The protocol: (§4) […] functional properties of these compounds was tested in cellular proliferation assays on a panel of different cell lines in the presence of 10% FCS serum (37° C. and 5% (v/v) CO2). In a first step these cells were seeded and incubated for 24 hours in the absence of compound. In the second step the cells were incubated for 72 hours with the compounds to be tested for 72 hours. The viable cell number was finally assessed in a standard Alamar blue cell viability assay.
(§5) The viable cell number was assessed by incubation for either 4 h (HCT-116, H1299, H460) 6 h (SKOV3, HT29, U87-MG, Colo205) or 24 h (A2780, PC3, MDA-MB-231, A549, MCF-7) with Alamar blue (Resazurin 9 μg/ml, K-Ferrocyanide 90 μM K-Ferricyanide 90 μM) and the converted fluorescent product was quantified on a fluorescent plate readed (544 nm/590 nm). Effect of the compounds is calculated as of on control cells.
A general note: Alamar Blue is a resazurin reagent that responds to reducing activity.

Another assay concerns A2780. The assay can be described thus: Cellular proliferation assay (Alamar blue), A2780. The conditions noted are these: A2780 cells, 72 hours with compound, 10% FCS. It is filed as cell-based. The protocol: as §4, §5
The next assay concerns HCT-116. The assay can be described thus: Cellular proliferation assay (Alamar blue), HCT-116. Format: cell-based. The conditions noted are these: HCT-116 cells, 72 hours with compound, 10% FCS. The protocol:
as §4, §5

Chain of CDK1/CyclinB (h) (P06493 whole entry): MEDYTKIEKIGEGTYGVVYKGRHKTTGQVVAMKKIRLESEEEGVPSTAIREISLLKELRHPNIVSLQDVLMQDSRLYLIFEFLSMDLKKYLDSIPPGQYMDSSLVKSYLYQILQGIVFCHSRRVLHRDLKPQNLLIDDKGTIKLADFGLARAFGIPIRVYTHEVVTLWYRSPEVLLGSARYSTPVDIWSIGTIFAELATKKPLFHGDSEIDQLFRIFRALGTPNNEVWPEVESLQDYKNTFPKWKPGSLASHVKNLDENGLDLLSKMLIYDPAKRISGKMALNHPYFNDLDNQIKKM
Chain of CDK1/CyclinB (h) (P14635 whole entry partner): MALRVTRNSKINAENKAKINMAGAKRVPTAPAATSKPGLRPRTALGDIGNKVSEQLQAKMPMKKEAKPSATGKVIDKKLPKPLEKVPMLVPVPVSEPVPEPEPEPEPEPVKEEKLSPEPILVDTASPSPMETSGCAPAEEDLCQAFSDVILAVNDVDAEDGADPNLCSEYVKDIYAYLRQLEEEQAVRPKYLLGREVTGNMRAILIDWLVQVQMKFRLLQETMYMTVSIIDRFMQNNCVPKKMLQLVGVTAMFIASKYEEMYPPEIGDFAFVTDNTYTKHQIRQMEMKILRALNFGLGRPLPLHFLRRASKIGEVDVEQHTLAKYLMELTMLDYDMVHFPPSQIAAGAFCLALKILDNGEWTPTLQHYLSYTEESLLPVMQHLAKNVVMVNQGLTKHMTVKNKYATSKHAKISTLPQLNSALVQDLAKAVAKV

Turning to `CN1CCCCCCC(=O)N(C)CCCNc2ncnc3c2/C(=C/Nc2cccc(c2)C1)C(=O)N3` [Compound 74], the IC50 is above 10000 nM at GSK3β (h), above 10 µM at AuroraB (h), 5620 nM on PLK4 (h) and above 10 µM at CDK1/CyclinB (h).

For the compound `COc1ccc2cc1CN(C)CCCCC(=O)N(C)CCNc1ncnc3c1/C(=C/N2)C(=O)N3` [Compound 75], the IC50 was 562 nM on GSK3β (h), above 10 µM at AuroraB (h), 5890 nM at PLK4 (h) and 5.37 µM on CDK1/CyclinB (h).

Take `CN1CCNc2ncnc3c2/C(=C/Nc2ccc(Cl)c(c2)OCCCCCCC1=O)C(=O)N3` [Compound 78]: the IC50 was 2190 nM at GSK3β (h), 7.59 µM at AuroraB (h), above 10000 nM on PLK4 (h) and above 10 µM at CDK1/CyclinB (h).

With `CN1CCCCC(=O)N(C)CCNc2ncnc3c2/C(=C/Nc2cccc(c2)C1)C(=O)N3` [Compound 79], the IC50 on GSK3β (h) was 813 nM; on AuroraB (h), 9.12 µM; on PLK4 (h) it was 3310 nM; on CDK1/CyclinB (h), 8.91 µM.

In the case of `CN1CCCCCC(=O)N(C)CCNc2ncnc3c2/C(=C/Nc2cccc(c2)C1)C(=O)N3` [Compound 80], the IC50 at GSK3β (h) was 4680 nM; on AuroraB (h), above 10 µM; on PLK4 (h) it was 1410 nM; at CDK1/CyclinB (h), above 10 µM.

Consider `CN1CCCCCC(=O)N(C)CCCNc2ncnc3c2/C(=C/Nc2cccc(c2)C1)C(=O)N3` [Compound 81], for which the IC50 at GSK3β (h) was 2750 nM; at AuroraB (h), above 10 µM; at PLK4 (h), 1070 nM; at CDK1/CyclinB (h), above 10 µM.

Take `CN1CCCC(=O)N(C)CCNc2ncnc3c2/C(=C/Nc2cccc(c2)C1)C(=O)N3` [Compound 82]: the IC50 on GSK3β (h) is 1050 nM; at AuroraB (h) it was above 10 µM; on PLK4 (h), 6170 nM; on CDK1/CyclinB (h), above 10 µM.

As to `CN1CCCCCCC(=O)N(C)CCNc2ncnc3c2/C(=C/Nc2cccc(c2)C1)C(=O)N3` [Compound 83], the IC50 on GSK3β (h) was 2190 nM; at AuroraB (h), above 10 µM; on PLK4 (h), 1660 nM; on CDK1/CyclinB (h), above 10 µM.

For the compound `CN1CCCC(=O)N(C)CCCN(C)c2ncnc3c2/C(=C/Nc2ccc(Cl)c(c2)C1)C(=O)N3` [Compound 90], the IC50 was 617 nM on GSK3β (h), above 10 µM on AuroraB (h), 5500 nM on PLK4 (h) and above 10 µM at CDK1/CyclinB (h).

As for `CN1CCCCC(=O)N(C)CCCN(C)c2ncnc3c2/C(=C/Nc2ccc(Cl)c(c2)C1)C(=O)N3` [Compound 91], the IC50 at GSK3β (h) is 977 nM; on AuroraB (h) it was above 10 µM; on PLK4 (h) it was above 10000 nM; on CDK1/CyclinB (h), above 10 µM.

In the case of `CN1CCN(c2ccc3cc2CN(C)CCCCC(=O)N(C)CCNc2ncnc4c2/C(=C/N3)C(=O)N4)CC1` [Compound 92], the IC50 at GSK3β (h) is 1480 nM; on AuroraB (h), above 10 µM; at PLK4 (h) it was 1290 nM; on CDK1/CyclinB (h), above 10 µM.

For `CN1CCCC(=O)N(C)CCNc2ncnc3c2/C(=C/Nc2ccc(N4CCOCC4)c(c2)C1)C(=O)N3` [Compound 94], the IC50 is 1050 nM on GSK3β (h), above 10 µM at AuroraB (h), 5130 nM at PLK4 (h) and above 10 µM on CDK1/CyclinB (h).

`COc1cc2cc(c1OC)CN(C)CCCCC(=O)N(C)CCCNc1ncnc3c1/C(=C/N2)C(=O)N3` [Compound 95]: the IC50 at GSK3β (h) was 3160 nM; on AuroraB (h) it was above 10 µM; on PLK4 (h), 2690 nM; on CDK1/CyclinB (h), 1.15 µM.

Take `CN1CCCCC(=O)N(C)CCCNc2ncnc3c2/C(=C/Nc2ccc(N4CCOCC4)c(c2)C1)C(=O)N3` [Compound 96]: the IC50 was 708 nM at GSK3β (h), above 10 µM at AuroraB (h), 741 nM on PLK4 (h) and 3.39 µM on CDK1/CyclinB (h).

For `N#Cc1ccc2cc1OCCCC(=O)N1CCN(CC1)c1ncnc3c1/C(=C/N2)C(=O)N3` [Compound 98], the IC50 at GSK3β (h) was 776 nM; at AuroraB (h), above 10 µM; on PLK4 (h), above 10000 nM; at CDK1/CyclinB (h), above 10 µM.

As for `CN1CCNc2ncnc3c2/C(=C/Nc2cc(cc(C(F)(F)F)c2)OCCCC1=O)C(=O)N3` [Compound 127], the IC50 was above 10000 nM on GSK3β (h), above 10 µM on AuroraB (h), above 10000 nM on PLK4 (h) and above 10 µM at CDK1/CyclinB (h).

Take `CN1CCNc2ncnc3c2/C(=C/Nc2cc(cc(C(F)(F)F)c2)OCCCCC1=O)C(=O)N3` [Compound 128]: the IC50 was above 10000 nM on GSK3β (h), above 10 µM on AuroraB (h), above 10000 nM on PLK4 (h) and above 10 µM at CDK1/CyclinB (h).

With `CN1CCCCCC(=O)N(C)CCNc2ncnc3c2/C(=C/Nc2ccc(N4CCOCC4)c(c2)C1)C(=O)N3` [Compound 131], the IC50 on GSK3β (h) is 6380 nM; at AuroraB (h), above 10 µM; on PLK4 (h) it was 452 nM; on CDK1/CyclinB (h), above 10 µM.

As to `CN1CCN(c2ccc3cc2OCCCCCC(=O)N(C)CCNc2ncnc4c2/C(=C/N3)C(=O)N4)CC1` [Compound 141], the IC50 is 447 nM at GSK3β (h), above 10 µM at AuroraB (h), 692 nM on PLK4 (h) and 7.59 µM on CDK1/CyclinB (h).

In the case of `COc1ccc2cc1OCC(=O)N[C@H](Cc1ccccc1)CN(C)CCNc1ncnc3c1/C(=C/N2)C(=O)N3` [Compound 191], the IC50 in the assay with H1299 is above 10 µM; on AuroraB (h), 3.39 µM and 3.55 µM and > 10 µM; in the assay with A2780 (Homo sapiens, A2780, 72 h, read-out: pIC50 A2780 (converted)), 2450 nM; at PLK4 (h), 1660 nM and 2090 nM and > 10000 nM; in the assay with HCT-116 (Homo sapiens, HCT-116, 72 h, read-out: pIC50 HCT-116 (converted)), 2400 nM. Further, the “pIC50 A2780” value with A2780 was 5.47. Moreover, the “pIC50 HCT-116” value with HCT-116 is 5.55 and 5.77.

Values taken from patent US8338422B2, “Indolin-2-ones and aza-indolin-2-ones” (Janssen Pharmaceutica NV, priority 2007, dated 2012).
